Data: patent publication US20250235465A1, “USE OF SODIUM TRANS-[TETRACHLORIDOBIS(1H-INDAZOLE)RUTHENATE(III)] TO AMELIORATE PROTEASOME INHIBITOR RESISTANCE” (Bold Therapeutics Inc., priority 2021, published 2025)
Read-outs that look alike come from different tables or passages of the source.

What was measured:
[1] = tested on: MM.1S
Description: (§1) The luminescent readings obtained in the assay were used to measure the percentage of cell death following treatment with increasing doses of BOLD-100 for 24 hours. Each cell line was treated in triplicate and the average cell death was used to calculate the IC50 or […] inhibitory concentration dose in these cell lines using a nonlinear regression fit.
(§2) Proteasome inhibitors (PI) and immunomodulatory drugs (IMiD) are used as standards of care treatments in MM disease in the clinic. […] Specifically, the MM.1S cell line was developed to acquire partial resistance to proteasome inhibitors bortezomib (MM.1S BR) and carfilzomib (MM.1S CR) by treating the MM.1S cell line with increasing doses of the drugs for about 6 months and the OPM2 cell line was developed to acquire partial resistance to IMiD lenalidomide (OPM2 LR) and pomalidomide (OPM2 PR) by treating the OPM2 cell line with increasing doses of the drugs for about 6 months.

[2] = tested on: OPM2 LR (lenalidomide resistant); details: 24 hours
Description: as §1, §2

[3] = tested on: OPM2 PR (pomalidomide resistant); details: read-out: BOLD-100 IC50, 24 hours, Example 2, FIG. 2B
Description: as §1, §2

[4] = tested on: OPM2; details: OPM2, 24 hours
Description: as §1, §2

[5] = tested on: H1112; details: H1112, 24 hours, Table 1
Description: as §1

[6] = tested on: JJN3; details: JJN3, 24 hours, Table 1
Description: as §1

[7] = tested on: KMS27; details: KMS27, 24 hours, Table 1
Description: as §1

[8] = tested on: MOLP8; details: MOLP8, 24 hours, Table 1
Description: as §1

[9] = tested on: XG-1; details: XG-1, 24 hours, Table 1
Description: as §1

[10] = tested on: XG-2; details: XG-2, 24 hours, Table 1
Description: as §1

[11] = tested on: MM.1S BR (bortezomib resistant)
From the text: as §2

[12] = tested on: MM.1S BR in presence of HS-5; details: MM.1S BR in co-culture with HS-5, FIG. 5
Description: (§3) Bone marrow stromal cells are understood to provide a protective environment for cells, insulating bone marrow cells from drug effects. […] To do this, a co-culture assay was carried out, in which MM cells were grown in co-culture with a bone marrow stromal cell line HS-5. MM cell lines adhere to stromal cells in culture and the stromal cells can provide a protective effect against drug induced apoptosis/growth inhibition. Dose response curves were generated for the PI-sensitive cell line MM.1 S, and the two PI resistant lines MM.1S BR and MM.1S CR in presence of HS-5 by standard CTG assay.

[13] = tested on: MM.1S CR in presence of HS-5; details: MM.1S CR in co-culture with HS-5, FIG. 5
Description: as §3

[14] = tested on: MM.1S in presence of HS-5; details: MM.1S in co-culture with HS-5, FIG. 5
Description: as §3

[15] = tested on: bone marrow cell line HS-5; details: bone marrow stromal cell line HS-5, FIG. 5
Description: as §3

[16] = read-out: BOLD-100 IC50, 24 hours, Example 2, FIG. 2A

In the case of `[Cl][Ru]([Cl])([Cl])[Cl].[Na+].c1ccc2[nH]ncc2c1.c1ccc2[nH]ncc2c1` [BOLD-100, Sodium trans-[tetrachloridobis(1H-indazole)ruthenate(III)]], the IC50 ([1]; 24 hours, Table 1) is reported as 106 µM, the IC50 [1, 16] is reported as 83 µM and the “sensitivity to BOLD-100 compared to parental OPM2” value ([2]; FIG. 2B) is reported as “higher sensitivity”. For the same compound, the IC50 ([2]; Table 1) was 108 µM, the IC50 [3] was 51 µM and the IC50 ([4]; Table 1) was 130 µM. The IC50 ([4]; read-out: BOLD-100 IC50, Example 2, FIG. 2B) was 120 µM, the IC50 [5] was 72 µM and the IC50 [6] was “Not reached”. For the same compound, the IC50 [7] was 128 µM, the IC50 [8] was 115 µM and the IC50 [9] was 49 µM. It also gave an IC50 [10] of 54 µM, an IC50 [11, 16] of 23 µM and an IC50 ([11]; read-out: BOLD-100 IC50, 24 hours, FIG. 2A legend) of 23 µM. For the same compound, the impact on viability [12] was “negatively impact the viability”, the impact on viability [13] was “negatively impact the viability” and the impact on viability [14] was “negatively impact the viability”. For the same compound, the impact on viability [15] was “minimal impact”.
